# Values quoted from earlier work as cited in patent US7994325B2, “CGRP receptor antagonists” (Merck Sharp & Dohme Corp., priority 2005, dated 2011).
# Ends that are not written are not given here.
# Columns and labels:
# CGRP receptors [1] = conditions: intravenously administered (Olesen et al. 2004)
# CGRP receptors [2] = conditions: marmoset (Doods et al. 2000)
# CGRP receptors [3] = conditions: rat (Escott et al. 1995)
# CGRP receptors [4] = conditions: rats, prior administration (Williamson et al. 1997)
Molecule,clinical efficacy and safety in migraine (CGRP receptors [1]),effect on increase in facial blood flow (CGRP receptors [2]),effect on increased facial blood flow (CGRP receptors [3]),effect on increase in diameter of the middle meningeal artery (CGRP receptors [4])
NCCCC[C@H](NC(=O)[C@@H](Cc1cc(Br)c(O)c(Br)c1)NC(=O)N1CCC(N2Cc3ccccc3NC2=O)CC1)C(=O)N1CCN(c2ccncc2)CC1 [BIBN4096BS],safe and effective acute treatment for migraine,blocked,,
"CGRP(8-37): ""a fragment of CGRP that lacks seven N-terminal amino acid residues, is a selective antagonist of CGRP1""; ""a peptide CGRP antagonist"" (VTHRLAGLLSRSGGVVKNNFVPTNVGSKAF; ends and bridges not checked; UniProt P06881 90-119, looked up, fragment)",,,inhibited,blocked
